In article PMC7403827 (Clinical and Translational Medicine, 2020):

Assay: Adverse events (CTCAE 4.0) under apatinib plus gefitinib
Assay type: in vivo, human
Conditions: Apatinib 250 mg Cohort (n = 7), with gefitinib 250 mg; treatment‐related AE, patients (%)

Compound: N#CC1(c2ccc(NC(=O)c3cccnc3NCc3ccncc3)cc2)CCCC1 [Apatinib]
- Abdominal distention, ALL: 2 (28.6%)
- Abdominal distention, Grade 1–2: 2 (28.6%)
- Abdominal distention, Grade 3–4: 0
- Blurred vision, ALL: 0
- Blurred vision, Grade 1–2: 0
- Blurred vision, Grade 3–4: 0
- Cough, ALL: 4 (57.1%)
- Cough, Grade 1–2: 4 (57.1%)
- Cough, Grade 3–4: 0
- Diarrhea, ALL: 5 (71.4%)
- Diarrhea, Grade 1–2: 5 (71.4%)
- Diarrhea, Grade 3–4: 0
- Dizziness, ALL: 0
- Dizziness, Grade 1–2: 0
- Dizziness, Grade 3–4: 0
- Dry skin, ALL: 2 (28.6%)
- Dry skin, Grade 1–2: 2 (28.6%)
- Dry skin, Grade 3–4: 0
- Dysgeusia, ALL: 1 (14.3%)
- Dysgeusia, Grade 1–2: 1 (14.3%)
- Dysgeusia, Grade 3–4: 0
- Eczema, ALL: 1 (14.3%)
- Eczema, Grade 1–2: 1 (14.3%)
- Eczema, Grade 3–4: 0
- Elevated ALT, ALL: 3 (42.9%)
- Elevated ALT, Grade 1–2: 2 (28.6%)
- Elevated ALT, Grade 3–4: 1 (14.3%)
- Elevated AST, ALL: 2 (28.6%)
- Elevated AST, Grade 1–2: 1 (14.3%)
- Elevated AST, Grade 3–4: 1 (14.3%)
- Epistaxis, ALL: 3 (42.9%)
- Epistaxis, Grade 1–2: 3 (42.9%)
- Epistaxis, Grade 3–4: 0
- Fatigue, ALL: 2 (28.6%)
- Fatigue, Grade 1–2: 2 (28.6%)
- Fatigue, Grade 3–4: 0
- Gastrointestinal bleeding, ALL: 1 (14.3%)
- Gastrointestinal bleeding, Grade 1–2: 1 (14.3%)
- Gastrointestinal bleeding, Grade 3–4: 0
- HFSR, ALL: 2 (28.6%)
- HFSR, Grade 1–2: 2 (28.6%)
- HFSR, Grade 3–4: 0
- Haematuria, ALL: 1 (14.3%)
- Haematuria, Grade 1–2: 1 (14.3%)
- Haematuria, Grade 3–4: 0
- Headache, ALL: 1 (14.3%)
- Headache, Grade 1–2: 1 (14.3%)
- Headache, Grade 3–4: 0
- Hematochezia, ALL: 1 (14.3%)
- Hematochezia, Grade 1–2: 1 (14.3%)
- Hematochezia, Grade 3–4: 0
- Hypertension, ALL: 5 (71.4%)
- Hypertension, Grade 1–2: 4 (57.1%)
- Hypertension, Grade 3–4: 1 (14.3%)
- Increased bilirubin, ALL: 1 (14.3%)
- Increased bilirubin, Grade 1–2: 1 (14.3%)
- Increased bilirubin, Grade 3–4: 0
- Increased creatinine, ALL: 0
- Increased creatinine, Grade 1–2: 0
- Increased creatinine, Grade 3–4: 0
- Leukopenia, ALL: 0
- Leukopenia, Grade 1–2: 0
- Leukopenia, Grade 3–4: 0
- Nausea, ALL: 0
- Nausea, Grade 1–2: 0
- Nausea, Grade 3–4: 0
- Neutropenia, ALL: 0
- Neutropenia, Grade 1–2: 0
- Neutropenia, Grade 3–4: 0
- Oulorrhagia, ALL: 3 (42.9%)
- Oulorrhagia, Grade 1–2: 3 (42.9%)
- Oulorrhagia, Grade 3–4: 0
- Paronychia, ALL: 1 (14.3%)
- Paronychia, Grade 1–2: 1 (14.3%)
- Paronychia, Grade 3–4: 0
- Periodontitis, ALL: 1 (14.3%)
- Periodontitis, Grade 1–2: 1 (14.3%)
- Periodontitis, Grade 3–4: 0
- Pharyngalgia, ALL: 1 (14.3%)
- Pharyngalgia, Grade 1–2: 1 (14.3%)
- Pharyngalgia, Grade 3–4: 0
- Pneumonia (non‐interstitial), ALL: 1 (14.3%)
- Pneumonia (non‐interstitial), Grade 1–2: 1 (14.3%)
- Pneumonia (non‐interstitial), Grade 3–4: 0
- Proteinuria, ALL: 3 (42.9%)
- Proteinuria, Grade 1–2: 2 (28.6%)
- Proteinuria, Grade 3–4: 1 (14.3%)
- Pruritus, ALL: 0
- Pruritus, Grade 1–2: 0
- Pruritus, Grade 3–4: 0
- Rash, ALL: 5 (71.4%)
- Rash, Grade 1–2: 5 (71.4%)
- Rash, Grade 3–4: 0
- Stomatitis, ALL: 2 (28.6%)
- Stomatitis, Grade 1–2: 2 (28.6%)
- Stomatitis, Grade 3–4: 0
- Thrombocytopenia, ALL: 0
- Thrombocytopenia, Grade 1–2: 0
- Thrombocytopenia, Grade 3–4: 0
- Trachyphonia, ALL: 2 (28.6%)
- Trachyphonia, Grade 1–2: 2 (28.6%)
- Trachyphonia, Grade 3–4: 0
- Vomiting, ALL: 0
- Vomiting, Grade 1–2: 0
- Vomiting, Grade 3–4: 0
